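Where inhibition never reached the appropriate level, the endpoint shown equals the highest concentration tested. Otherwise, values were interpolated linearly from a five-concentration, 48-hour dose response in 96-well plates. At the TGI there is no net growth.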
Tests used:
Experiment in all cases: NCI-60 cell line screen, 48 h
SNB-19 CNS = system: SNB-19 CNS
SK-MEL-5 melanoma = system: SK-MEL-5 melanoma
NCI-H226 lung = system: NCI-H226 lung
COLO 205 colon = system: COLO 205 colon
NCI/ADR-RES ovarian = system: NCI/ADR-RES ovarian
BT-549 breast = system: BT-549 breast
UACC-257 melanoma = system: UACC-257 melanoma
MCF7 breast = system: MCF7 breast
SN12C renal = system: SN12C renal
UACC-62 melanoma = system: UACC-62 melanoma
MALME-3M melanoma = system: MALME-3M melanoma
K-562 leukemia = system: K-562 leukemia
SF-268 CNS = system: SF-268 CNS
LOX IMVI melanoma = system: LOX IMVI melanoma
HT29 colon = system: HT29 colon
SNB-75 CNS = system: SNB-75 CNS
SK-OV-3 ovarian = system: SK-OV-3 ovarian
SK-MEL-28 melanoma = system: SK-MEL-28 melanoma
MDA-MB-231 breast = system: MDA-MB-231 breast
IGROV1 ovarian = system: IGROV1 ovarian
MDA-N = system: MDA-N
SR leukemia = system: SR leukemia
ACHN renal = system: ACHN renal
OVCAR-8 ovarian = system: OVCAR-8 ovarian
786-0 renal = system: 786-0 renal
HS 578T breast = system: HS 578T breast
NCI-H23 lung = system: NCI-H23 lung
TK-10 renal = system: TK-10 renal
SW-620 colon = system: SW-620 colon
OVCAR-4 ovarian = system: OVCAR-4 ovarian
KM12 colon = system: KM12 colon
DU-145 prostate = system: DU-145 prostate
HOP-92 NSCLC = system: HOP-92 NSCLC
SF-539 CNS = system: SF-539 CNS
OVCAR-3 ovarian = system: OVCAR-3 ovarian
A498 renal = system: A498 renal
NCI-H460 lung = system: NCI-H460 lung
M14 melanoma = system: M14 melanoma
MOLT-4 leukemia = system: MOLT-4 leukemia
HOP-62 NSCLC = system: HOP-62 NSCLC
RXF 393 renal = system: RXF 393 renal
T-47D breast = system: T-47D breast
MDA-MB-435 = system: MDA-MB-435
SF-295 CNS = system: SF-295 CNS
RPMI-8226 leukemia = system: RPMI-8226 leukemia
HCT-15 colon = system: HCT-15 colon
SK-MEL-2 melanoma = system: SK-MEL-2 melanoma
CAKI-1 renal = system: CAKI-1 renal
UO-31 renal = system: UO-31 renal
HCT-116 colon = system: HCT-116 colon
NCI-H522 lung = system: NCI-H522 lung
A549 NSCLC = system: A549 NSCLC
HL-60(TB) leukemia = system: HL-60(TB) leukemia
OVCAR-5 ovarian = system: OVCAR-5 ovarian
U251 CNS = system: U251 CNS
EKVX NSCLC = system: EKVX NSCLC
CCRF-CEM leukemia = system: CCRF-CEM leukemia
PC-3 prostate = system: PC-3 prostate
HCC-2998 colon = system: HCC-2998 colon

Structure (SMILES): c1ccc(CN[C@]23C4C5CC6C7C5C2C7[C@@](NCc2ccccc2)(C64)N3Cc2ccccc2)cc1 (some centres undefined)
- TGI (SNB-19 CNS): > 100 µM
- TGI (SK-MEL-5 melanoma): > 100 µM
- TGI (NCI-H226 lung): > 100 µM
- TGI (COLO 205 colon): > 100 µM
- TGI (NCI/ADR-RES ovarian): > 100 µM
- TGI (BT-549 breast): > 100 µM
- TGI (UACC-257 melanoma): > 100 µM
- TGI (MCF7 breast): > 100 µM
- TGI (SN12C renal): > 100 µM
- TGI (UACC-62 melanoma): > 100 µM
- TGI (MALME-3M melanoma): > 100 µM
- TGI (K-562 leukemia): > 100 µM
- TGI (SF-268 CNS): > 100 µM
- TGI (LOX IMVI melanoma): > 100 µM
- TGI (HT29 colon): > 100 µM
- TGI (SNB-75 CNS): > 100 µM
- TGI (SK-OV-3 ovarian): > 100 µM
- TGI (SK-MEL-28 melanoma): > 100 µM
- TGI (MDA-MB-231 breast): > 100 µM
- TGI (IGROV1 ovarian): > 100 µM
- TGI (MDA-N): > 100 µM
- TGI (SR leukemia): > 100 µM
- TGI (ACHN renal): > 100 µM
- TGI (OVCAR-8 ovarian): > 100 µM
- TGI (786-0 renal): > 100 µM
- TGI (HS 578T breast): > 100 µM
- TGI (NCI-H23 lung): > 100 µM
- TGI (TK-10 renal): > 100 µM
- TGI (SW-620 colon): > 100 µM
- TGI (OVCAR-4 ovarian): > 100 µM
- TGI (KM12 colon): > 100 µM
- TGI (DU-145 prostate): > 100 µM
- TGI (HOP-92 NSCLC): > 100 µM
- TGI (SF-539 CNS): > 100 µM
- TGI (OVCAR-3 ovarian): > 100 µM
- TGI (A498 renal): > 100 µM
- TGI (NCI-H460 lung): > 100 µM
- TGI (M14 melanoma): > 100 µM
- TGI (MOLT-4 leukemia): > 100 µM
- TGI (HOP-62 NSCLC): > 100 µM
- TGI (RXF 393 renal): > 100 µM
- TGI (T-47D breast): > 100 µM
- TGI (MDA-MB-435): > 100 µM
- TGI (SF-295 CNS): > 100 µM
- TGI (RPMI-8226 leukemia): > 100 µM
- TGI (HCT-15 colon): > 100 µM
- TGI (SK-MEL-2 melanoma): > 100 µM
- TGI (CAKI-1 renal): > 100 µM
- TGI (UO-31 renal): > 100 µM
- TGI (HCT-116 colon): > 100 µM
- TGI (NCI-H522 lung): > 100 µM
- TGI (A549 NSCLC): > 100 µM
- TGI (HL-60(TB) leukemia): > 100 µM
- TGI (OVCAR-5 ovarian): > 100 µM
- TGI (U251 CNS): > 100 µM
- TGI (EKVX NSCLC): > 100 µM
- TGI (CCRF-CEM leukemia): > 100 µM
- TGI (PC-3 prostate): > 100 µM

Structure (SMILES): Cc1ccc(NC(=O)C(Cc2c[nH]c3ccccc23)NC(=O)Oc2ccccc2)cc1C (centres undefined)
- TGI (SNB-19 CNS): > 100 µM
- TGI (SK-MEL-5 melanoma): > 100 µM
- TGI (NCI-H226 lung): > 100 µM
- TGI (COLO 205 colon): > 100 µM
- TGI (NCI/ADR-RES ovarian): > 100 µM
- TGI (BT-549 breast): > 100 µM
- TGI (UACC-257 melanoma): > 100 µM
- TGI (MCF7 breast): > 100 µM
- TGI (SN12C renal): > 100 µM
- TGI (UACC-62 melanoma): > 100 µM
- TGI (MALME-3M melanoma): 99.5 µM
- TGI (K-562 leukemia): > 100 µM
- TGI (SF-268 CNS): > 100 µM
- TGI (LOX IMVI melanoma): > 100 µM
- TGI (HT29 colon): > 100 µM
- TGI (SK-OV-3 ovarian): > 100 µM
- TGI (SK-MEL-28 melanoma): > 100 µM
- TGI (MDA-MB-231 breast): > 100 µM
- TGI (IGROV1 ovarian): > 100 µM
- TGI (MDA-N): > 100 µM
- TGI (ACHN renal): > 100 µM
- TGI (OVCAR-8 ovarian): > 100 µM
- TGI (HS 578T breast): > 100 µM
- TGI (NCI-H23 lung): > 100 µM
- TGI (TK-10 renal): 25.5 µM
- TGI (SW-620 colon): > 100 µM
- TGI (OVCAR-4 ovarian): > 100 µM
- TGI (KM12 colon): > 100 µM
- TGI (DU-145 prostate): > 100 µM
- TGI (HOP-92 NSCLC): > 100 µM
- TGI (SF-539 CNS): > 100 µM
- TGI (OVCAR-3 ovarian): > 100 µM
- TGI (A498 renal): 88.4 µM
- TGI (NCI-H460 lung): > 100 µM
- TGI (M14 melanoma): > 100 µM
- TGI (MOLT-4 leukemia): > 100 µM
- TGI (HOP-62 NSCLC): > 100 µM
- TGI (RXF 393 renal): > 100 µM
- TGI (T-47D breast): > 100 µM
- TGI (MDA-MB-435): > 100 µM
- TGI (SF-295 CNS): > 100 µM
- TGI (RPMI-8226 leukemia): 80.9 µM
- TGI (HCT-15 colon): > 100 µM
- TGI (SK-MEL-2 melanoma): > 100 µM
- TGI (CAKI-1 renal): > 100 µM
- TGI (UO-31 renal): > 100 µM
- TGI (HCT-116 colon): > 100 µM
- TGI (NCI-H522 lung): > 100 µM
- TGI (A549 NSCLC): > 100 µM
- TGI (HL-60(TB) leukemia): > 100 µM
- TGI (OVCAR-5 ovarian): > 100 µM
- TGI (U251 CNS): > 100 µM
- TGI (EKVX NSCLC): > 100 µM
- TGI (CCRF-CEM leukemia): > 100 µM
- TGI (PC-3 prostate): > 100 µM

Structure (SMILES): O=c1c2c3c(sc2nc2n1N=C(c1ccc(Cl)cc1)CS2)CCCC3
- TGI (SK-MEL-5 melanoma): > 100 µM
- TGI (NCI-H226 lung): > 100 µM
- TGI (COLO 205 colon): > 100 µM
- TGI (NCI/ADR-RES ovarian): > 100 µM
- TGI (BT-549 breast): > 100 µM
- TGI (UACC-257 melanoma): > 100 µM
- TGI (MCF7 breast): > 100 µM
- TGI (SN12C renal): > 100 µM
- TGI (UACC-62 melanoma): > 100 µM
- TGI (MALME-3M melanoma): > 100 µM
- TGI (K-562 leukemia): > 100 µM
- TGI (SF-268 CNS): > 100 µM
- TGI (HCC-2998 colon): > 100 µM
- TGI (LOX IMVI melanoma): > 100 µM
- TGI (HT29 colon): > 100 µM
- TGI (SNB-75 CNS): > 100 µM
- TGI (SK-OV-3 ovarian): > 100 µM
- TGI (SK-MEL-28 melanoma): > 100 µM
- TGI (MDA-MB-231 breast): > 100 µM
- TGI (IGROV1 ovarian): > 100 µM
- TGI (MDA-N): > 100 µM
- TGI (SR leukemia): > 100 µM
- TGI (ACHN renal): > 100 µM
- TGI (OVCAR-8 ovarian): > 100 µM
- TGI (786-0 renal): > 100 µM
- TGI (HS 578T breast): > 100 µM
- TGI (NCI-H23 lung): > 100 µM
- TGI (TK-10 renal): > 100 µM
- TGI (SW-620 colon): > 100 µM
- TGI (OVCAR-4 ovarian): > 100 µM
- TGI (KM12 colon): > 100 µM
- TGI (DU-145 prostate): > 100 µM
- TGI (HOP-92 NSCLC): > 100 µM
- TGI (SF-539 CNS): > 100 µM
- TGI (OVCAR-3 ovarian): > 100 µM
- TGI (A498 renal): > 100 µM
- TGI (NCI-H460 lung): > 100 µM
- TGI (MOLT-4 leukemia): > 100 µM
- TGI (HOP-62 NSCLC): > 100 µM
- TGI (RXF 393 renal): > 100 µM
- TGI (T-47D breast): > 100 µM
- TGI (MDA-MB-435): > 100 µM
- TGI (SF-295 CNS): > 100 µM
- TGI (RPMI-8226 leukemia): > 100 µM
- TGI (HCT-15 colon): > 100 µM
- TGI (CAKI-1 renal): > 100 µM
- TGI (UO-31 renal): > 100 µM
- TGI (HCT-116 colon): > 100 µM
- TGI (NCI-H522 lung): > 100 µM
- TGI (A549 NSCLC): > 100 µM
- TGI (HL-60(TB) leukemia): > 100 µM
- TGI (OVCAR-5 ovarian): > 100 µM
- TGI (U251 CNS): > 100 µM
- TGI (EKVX NSCLC): > 100 µM
- TGI (CCRF-CEM leukemia): > 100 µM
- TGI (PC-3 prostate): > 100 µM
